Data reported in ChEMBL document CHEMBL5614390, “Novel EGFR inhibitors against resistant L858R/T790M/C797S mutant for intervention of non-small cell lung cancer” (Eur J Med Chem, 2024).
pIC50: −log10 of the molar value. The source made the active and inactive calls. The calls are words filed in the database; no cut-off is given here.

Assays:
HCC827 = assay: cells; conditions: Homo sapiens, HCC827, 72 h
Description: Cytotoxicity against human HCC827 cells expressing EGFR Del19 mutant assessed as inhibition of cell proliferation incubated for 72 hrs by CCK8 assay

[1] = Metabolic stability in rabbit liver microsomes assessed as half-life at 10 uM preincubated for 5 mins followed by NADPH addition and measured upto 60 mins by HPLC analysis; assay type: ADME, Oryctolagus cuniculus, Microsome; conditions: time < 65 min
PC-9 [2] = assay: Induction of apoptosis in human PC-9 cells expressing EGFR L858R/T790M/C797S mutant assessed as viable cells at 0.1 uM incubated for 48 hrs by Annexin V-FITC/PI staining based flow cytometric analysis (reference value: 98.9 %); assay type: functional; conditions: read-out: Activity
PC-9 [3] = assay: Antitumor activity against human PC-9 cells expressing EGFR L858R/T790M/C797S mutant xenografted in BALB/c nude mouse assessed as reduction in tumor weight at 10 to 40 mg/kg, po administered for 18 days; assay type: functional, organism-based; conditions: dose 10-40 mg/kg, time 18.0 day
[4] = Toxicity in BALB/c nude mouse xenografted with human PC-9 cells expressing EGFR L858R/T790M/C797S mutant assessed as body weight loss at 10 to 40 mg/kg, po administered for 18 days; assay type: organism-based; conditions: in vivo, 432 h, dose 10-40 mg/kg, time 18 day
PC-9 [5] = assay: cells; conditions: Homo sapiens, PC-9, 72 h
Description: Cytotoxicity against human PC-9 cells expressing EGFR L858R/T790M/C797S mutant assessed as inhibition of cell proliferation incubated for 72 hrs by CCK8 assay

PC-9 [6] = assay: Induction of apoptosis in human PC-9 cells expressing EGFR Del19/T790M/C797S mutant assessed as necrotic cells at 0.5 uM incubated for 48 hrs by Annexin V-FITC/PI staining based flow cytometric analysis (reference value: 0.090 %); assay type: functional
PC-9 [7] = assay: Induction of apoptosis in human PC-9 cells expressing EGFR Del19/T790M/C797S mutant assessed as viable cells at 1 uM incubated for 48 hrs by Annexin V-FITC/PI staining based flow cytometric analysis (reference value: 99.8 %); assay type: functional; conditions: Homo sapiens, PC-9, read-out: Activity
PC-9 [8] = assay: Induction of apoptosis in human PC-9 cells expressing EGFR L858R/T790M/C797S mutant assessed as early apoptotic cells at 0.5 uM incubated for 48 hrs by Annexin V-FITC/PI staining based flow cytometric analysis (reference value: 0.210 %); assay type: functional
PC-9 [9] = assay: Induction of apoptosis in human PC-9 cells expressing EGFR L858R/T790M/C797S mutant assessed as necrotic cells at 1 uM incubated for 48 hrs by Annexin V-FITC/PI staining based flow cytometric analysis (reference value: 0.540 %); assay type: functional
PC-9 [10] = assay: Induction of apoptosis in human PC-9 cells expressing EGFR Del19/T790M/C797S mutant assessed as necrotic cells at 1 uM incubated for 48 hrs by Annexin V-FITC/PI staining based flow cytometric analysis (reference value: 0.090 %); assay type: functional
PC-9 [11] = assay: Induction of cell cycle arrest in human PC-9 cells expressing EGFR L858R/T790M/C797S mutant assessed as accumulation of cells at G2/M phase at 1 uM incubated for 24 hrs by PI staining based flow cytometric analysis; assay type: functional
PC-9 [12] = assay: Induction of apoptosis in human PC-9 cells expressing EGFR Del19/T790M/C797S mutant assessed as late apoptotic cells at 0.1 uM incubated for 48 hrs by Annexin V-FITC/PI staining based flow cytometric analysis (reference value: 0.040 %); assay type: functional
PC-9 [13] = assay: Induction of apoptosis in human PC-9 cells expressing EGFR Del19/T790M/C797S mutant assessed as viable cells at 0.5 uM incubated for 48 hrs by Annexin V-FITC/PI staining based flow cytometric analysis (reference value: 99.8 %); assay type: functional; conditions: read-out: Activity
PC-9 [14] = assay: cells; conditions: Homo sapiens, PC-9, 72 h; remark: listed apart in the source
Description: Cytotoxicity against human PC-9 cells expressing EGFR Del19 mutant assessed as inhibition of cell proliferation incubated for 72 hrs by CCK8 assay

[15] = Metabolic stability in human liver microsomes assessed as intrinsic clearance at 10 uM preincubated for 5 mins followed by NADPH addition and measured upto 60 mins by HPLC analysis; assay type: ADME, Microsome; conditions: time < 65 min, read-out: CLH
[16] = Metabolic stability in human liver microsomes assessed as half-life at 10 uM preincubated for 5 mins followed by NADPH addition and measured upto 60 mins by HPLC analysis; assay type: ADME, Microsome; conditions: time < 65 min
PC-9 [17] = assay: Antitumor activity against human PC-9 cells expressing EGFR L858R/T790M/C797S mutant xenografted in BALB/c nude mouse assessed as average tumor weight at 40 mg/kg, po administered for 18 days (reference value: 0.83 g); assay type: functional; conditions: time 18 day
PC-9 [18] = assay: Induction of apoptosis in human PC-9 cells expressing EGFR Del19/T790M/C797S mutant assessed as early apoptotic cells at 0.1 uM incubated for 48 hrs by Annexin V-FITC/PI staining based flow cytometric analysis (reference value: 0.050 %); assay type: functional
PC-9 [19] = assay: Induction of apoptosis in human PC-9 cells expressing EGFR L858R/T790M/C797S mutant assessed as viable cells at 1 uM incubated for 48 hrs by Annexin V-FITC/PI staining based flow cytometric analysis (reference value: 98.9 %); assay type: functional; conditions: Homo sapiens, PC-9, read-out: Activity
PC-9 [20] = assay: Antitumor activity against human PC-9 cells expressing EGFR L858R/T790M/C797S mutant xenografted in BALB/c nude mouse assessed as reduction in tumor volume at 10 to 40 mg/kg, po administered for 18 days; assay type: functional, organism-based; conditions: dose 10-40 mg/kg, time 18.0 day
[21] = Metabolic stability in dog liver microsomes assessed as intrinsic clearance at 10 uM preincubated for 5 mins followed by NADPH addition and measured upto 60 mins by HPLC analysis; assay type: ADME, Canis lupus familiaris, Microsome; conditions: time < 65 min, read-out: CLH
[22] = Metabolic stability in mouse liver microsomes assessed as half-life at 10 uM preincubated for 5 mins followed by NADPH addition and measured upto 60 mins by HPLC analysis; assay type: ADME, Microsome; conditions: time < 65 min
PC-9 [23] = assay: Induction of apoptosis in human PC-9 cells expressing EGFR L858R/T790M/C797S mutant assessed as early apoptotic cells at 1 uM incubated for 48 hrs by Annexin V-FITC/PI staining based flow cytometric analysis (reference value: 0.210 %); assay type: functional
PC-9 [24] = assay: Induction of apoptosis in human PC-9 cells expressing EGFR L858R/T790M/C797S mutant assessed as necrotic cells at 0.1 uM incubated for 48 hrs by Annexin V-FITC/PI staining based flow cytometric analysis (reference value: 0.540 %); assay type: functional

pIC50 (HCC827): 6.97
half-life at 10 µM [1]: 2.36 h
pIC50 (PC-9 [5]): 7.28
pIC50 (PC-9 [14]): 6.84
microsomal CLint at 10 µM [15]: 20 µL/min/mg
half-life at 10 µM [16]: 3.85 h
microsomal CLint at 10 µM [21]: 18 µL/min/mg
half-life at 10 µM [22]: 1.38 h
Structure (SMILES): C=CC(=O)Nc1cc(Nc2ncc(F)c(-c3ccc4cc(C(=O)NC)n(C(C)C)c4c3)n2)ccc1N1CCN(C)CC1
viability at 0.1 µM (PC-9 [2]): 84.9%
Activity (PC-9 [3]): Active
Activity [4]: Non-Toxic
Activity (PC-9 [6]): 1.2%
viability at 1 µM (PC-9 [7]): 79.1%
Activity (PC-9 [8]): 30.3%
Activity (PC-9 [9]): 0.91%
Activity (PC-9 [10]): 1.01%
Activity (PC-9 [11]): Active
Activity (PC-9 [12]): 7.34%
viability at 0.5 µM (PC-9 [13]): 82.8%
Activity (PC-9 [17]): 0.31 g
Activity (PC-9 [18]): 3.32%
viability at 1 µM (PC-9 [19]): 58.8%
Activity (PC-9 [20]): Active
Activity (PC-9 [23]): 36.3%
Activity (PC-9 [24]): 5.84%
